Assay results from patent US11603368B2, “Fused thiophene derivatives and their uses” (ENYO PHARMA, priority 2018, dated 2023).

How the values were obtained:
[1] = test system: H1N1 (influenza A/New Caledonia/20/99); assay: Antiviral effect on A549 cells infected with H1N1; assay type: cell-based, H1N1 A/New Caledonia/20/99 virus; conditions: Human A549 cells, MOI of 0.1, 48 h post-infection, MUNANA hydrolysis readout
Method: The antiviral effect of the compounds of the invention has been tested on A549 cell lines infected with H1N1 (influenza A/New Caledonia/20/99).
Human A549 cells (80,000 cells/well in a 96 well plate) were treated with a range of concentration of test molecules and immediately infected by H1N1 A/New Caledonia/20/99 virus (clinical isolate) at MOI of 0.1 in DMEM/1% Penicillin/streptomycin supplemented with 0.25 μg/ml TPCK trypsin (Sigma) and incubated at 37° C. in 5% CO2. 48 h post-infection, supernatants (25 μl) were collected and transferred into a 96-well black flat-bottom plate, mixed with 25 μl PBS with Ca++/Mg++(Thermo Fisher) and 50 μl of 2′-(4-Methylumbelliferyl)-α-D-N-acetylneuraminic acid sodium salt hydrate stock-solution (20 μM, MUNANA, Sigma). Plates were incubated 1 h at 37° C. and reaction is stopped by adding 100 μl of Stop Solution (glycine 0.1 M pH10.7/25% ethanol). The amount of fluorescent product released by MUNANA hydrolysis (4-MU) was measured in a Tecan spectrophotometer with excitation and emission wavelengths of 365 and 450 nm respectively.

[2] = target: T1, CISD1 Gene Product (mitoNEET) (Homo sapiens, UniProt Q9NZ45); assay: Stability of Fe—S cluster binding of purified NEET protein mitoNEET; assay type: biochemical; conditions: for Time (in minutes) to achieve 50% loss of bound cluster (Absorbance 458 nm), CISD1 Gene Product (mitoNEET) / Residual cluster bound at end of experiment (Percentage Absorbance 458 nm at time zero), CISD1 Gene Product (mitoNEET): pH 6, 37° C., 1:3 protein:compound molar ratio; for Time (in minutes) to achieve 50% loss of bound cluster (Absorbance 458 nm), CISD1 Gene Product (mitoNEET): 6 μM compound, run time 180 minutes, Vehicle Control 80; for Residual cluster bound at end of experiment (Percentage Absorbance 458 nm at time zero), CISD1 Gene Product (mitoNEET): end of 180 minutes, Vehicle Control 16%; for stabiliser or destabiliser of Fe—S cluster binding, CISD1 Gene Product (mitoNEET): time to 50% Fe—S cluster bound loss changed by more than 25% vs Control sample, at the concentrations tested
T1 sequence (Q9NZ45 33-108 limits assumed): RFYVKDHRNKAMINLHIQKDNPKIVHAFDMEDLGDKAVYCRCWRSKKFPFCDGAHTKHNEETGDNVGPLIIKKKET
Method: (§1) The modulator effect on the NEET proteins encoded by human CISD1, CISD2, and CISD3 genes by the compounds of the invention has been tested and is reported below. Particularly, the biochemical function of the NEET proteins is measured by the stability of Fe—S cluster binding of the purified NEET proteins.
(§2) The Fe—S cluster binding capacity of NEET proteins is known to be coordinated by four amino-acids in a stretch of 16 (three Cysteine and one Histidine). As the lability of the Fe—S cluster of NEET proteins is sensitive to the environment, cluster stability measurements are one of the measures of interactions of NEET proteins with small molecules and compounds. NEET protein/2Fe-2S cluster stability can be assessed by monitoring the decay in absorbance of its characteristic 458-nm peak (characteristic of the oxidized 2Fe-2S cluster) over time. Each NEET protein (mitoNEET, NAF-1 and Miner 2) was tested for its Fe—S binding in the absence or presence of a compound according to the invention (see table 2 below). The rate of cluster release (time in minutes to achieve 50% loss of bound Fe—S cluster) was compared for each NEET protein in the presence of one of the compounds of the invention (in a 1:3 protein:compound molar ratio) relative to each protein alone.
(§3) At pH 6, all the three NEET proteins (mitoNEET, NAF-1 and Miner 2) have a characteristic rate of loss of the bound Fe—S cluster that can be measured by the decrease of absorbance at wavelength 458 nm over time, using a spectrophotometer. Thus, Bis-Tris buffer (100 mM Bis-Tris pH6, 100 mM Nacl) was used at pH 6 to dilute either DMSO (Blank sample: Bis-Tris Buffer pH 6, 6 μM DMSO), DMSO and one of the three NEET proteins (Control sample: Bis-Tris Buffer pH 6, 6 μM DMSO, 2 μM purified NEET protein) or DMSO, one of the three NEET proteins and a compound of the invention (Test sample: Bis-Tris Buffer pH 6, 6 μM DMSO, […], 6 μM compound of the invention).
(§4) A reaction mix containing DMSO diluted in the Bis-Tris Buffer with or without a compound of the invention was prepared. The purified NEET protein was the last component added to the reaction mix which was then aliquoted into 4 replicates in 96 wells plates. The absorbance at wavelength 458 nm was taken at 5 minutes intervals at 37° C. with a spectrofluorimeter. The assay run time for CISD2 gene product (NAF-1) was 500 minutes and 180 minutes for both the CISD 1 gene product (mitoNEET) and the CISD3 gene product (Miner 2).
(§5) In addition to time monitoring, residual bound Fe—S cluster to NEET protein was measured at the final point of the spectrometry assay for each Test sample and compared to the Control sample data (in parenthesis table 2). This residual binding is measured by the differential percentage between the absorbance 458 nm at time zero and the absorbance 458 nm at the end of the experiment (i.e. respectively 500 or 180 minutes as described hereabove), showing the percentage of NEET protein still able to bind a Fe—S cluster.
(§6) Analysis of the absorbance enables the time for which 50% loss of bound Fe—S cluster is reached (i.e. a 50% absorbance decrease at 458 nm) for each Test sample and each Control sample (in parenthesis table 2) to be determined. The data are then compared to determine whether the compound of the invention stabilizes or destabilizes the NEET protein/Fe—S cluster binding.

[3] = target: T2, CISD2 Gene Product (NAF-1) (Homo sapiens, UniProt Q8N5K1); assay: Stability of Fe—S cluster binding of purified NEET protein NAF-1; assay type: biochemical; conditions: for Time (in minutes) to achieve 50% loss of bound cluster (Absorbance 458 nm), CISD2 Gene Product (NAF-1) / Residual cluster bound at end of experiment (Percentage Absorbance 458 nm at time zero), CISD2 Gene Product (NAF-1): pH 6, 37° C., 1:3 protein:compound molar ratio; for Time (in minutes) to achieve 50% loss of bound cluster (Absorbance 458 nm), CISD2 Gene Product (NAF-1): 6 μM compound, run time 500 minutes, Vehicle Control 310; for Residual cluster bound at end of experiment (Percentage Absorbance 458 nm at time zero), CISD2 Gene Product (NAF-1): end of 500 minutes, Vehicle Control 3%; for stabiliser or destabiliser of Fe—S cluster binding, CISD2 Gene Product (NAF-1): time to 50% Fe—S cluster bound loss changed by more than 25% vs Control sample, at the concentrations tested
T2 sequence (Q8N5K1 57-135 limits assumed): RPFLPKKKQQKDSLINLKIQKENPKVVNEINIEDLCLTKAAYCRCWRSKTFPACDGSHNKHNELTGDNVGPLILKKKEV
Method: as §1, §2, §3, §4, §5, §6

[4] = target: T3, CISD3 Gene Product (Miner2) (Homo sapiens, UniProt P0C7P0); assay: Stability of Fe—S cluster binding of purified NEET protein Miner2; assay type: biochemical; conditions: for Time (in minutes) to achieve 50% loss of bound cluster (Absorbance 458 nm), CISD3 Gene Product (Miner2) / Residual cluster bound at end of experiment (Percentage Absorbance 458 nm at time zero), CISD3 Gene Product (DMSO 11%): pH 6, 37° C., 1:3 protein:compound molar ratio; for Time (in minutes) to achieve 50% loss of bound cluster (Absorbance 458 nm), CISD3 Gene Product (Miner2): 6 μM compound, run time 180 minutes, Vehicle Control 60; for Residual cluster bound at end of experiment (Percentage Absorbance 458 nm at time zero), CISD3 Gene Product (DMSO 11%): end of 180 minutes, Vehicle Control 11%; for stabiliser or destabiliser of Fe—S cluster binding, CISD3 Gene Product (Miner2): time to 50% Fe—S cluster bound loss changed by more than 25% vs Control sample, at the concentrations tested
T3 sequence (P0C7P0 15-127): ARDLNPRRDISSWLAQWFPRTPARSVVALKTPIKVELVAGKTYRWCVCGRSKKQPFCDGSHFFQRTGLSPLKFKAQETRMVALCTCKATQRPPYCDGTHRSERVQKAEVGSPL
Method: as §1, §2, §3, §4, §5, §6

[5] = Influenza A virus, H1N1, A549, 48 h

SMILES	IC50 [1]	Time (in minutes) to achieve 50% loss of bound cluster (Absorbance 458 nm), CISD1 Gene Product (mitoNEET) [2]	Residual cluster bound at end of experiment (Percentage Absorbance 458 nm at time zero), CISD1 Gene Product (mitoNEET) [2]	Time (in minutes) to achieve 50% loss of bound cluster (Absorbance 458 nm), CISD2 Gene Product (NAF-1) [3]	Residual cluster bound at end of experiment (Percentage Absorbance 458 nm at time zero), CISD2 Gene Product (NAF-1) [3]	stabiliser or destabiliser of Fe—S cluster binding, CISD2 Gene Product (NAF-1) [3]	Time (in minutes) to achieve 50% loss of bound cluster (Absorbance 458 nm), CISD3 Gene Product (Miner2) [4]	Residual cluster bound at end of experiment (Percentage Absorbance 458 nm at time zero), CISD3 Gene Product (DMSO 11%) [4]	IC50 [1, 5]	stabiliser or destabiliser of Fe—S cluster binding, CISD1 Gene Product (mitoNEET) [2]	stabiliser or destabiliser of Fe—S cluster binding, CISD3 Gene Product (Miner2) [4]
CC1CCCc2sc(NC(=O)c3ccccc3)c(C(=O)O)c21 (stereo not shown) [#74]	182 nM	90 min	0%	390 min	0%	Stabilisers	65 min	5%			
Cc1ccccc1C(=O)Nc1sc2c(c1C(=O)O)CCC(C(C)(C)C)C2 (stereo not shown) [#82]		during 180 minutes	60%	265 min	27%		during 180 minutes	64%	349 nM	stabilisers	Stabilisers
CC(C)OC1CCc2c(sc(NC(=O)c3ccccc3)c2C(=O)O)C1 (stereo not shown) [#103]		95 min	4%	415 min	4%	Stabilisers	65 min	20%	970 nM		
CC(C)(C)C1CCc2c(sc(NC(=O)c3ccccc3Cl)c2C(=O)O)C1 (stereo not shown) [#107]		105 min	35%	255 min	21%		75 min	41%	1150 nM	stabilisers	Stabilisers
O=C(Nc1sc2c(c1C(=O)O)C(c1ccccc1)CCC2)c1ccccc1 (stereo not shown) [#112]		100 min	29%	425 min	23%	Stabilisers	during 180 minutes	64%	1370 nM	stabilisers	Stabilisers
CC(C)(C)C1CCc2c(sc(NC(=O)C3CCCCC3)c2C(=O)O)C1 (stereo not shown) [#115]		100 min	34%	240 min	15%		65 min	28%	1470 nM	stabilisers	
